Measured values taken from ChEMBL document CHEMBL3044763, “Inhibitory Activities of Rhodanine Derivatives on Plant Growth” (Biosci Biotechnol Biochem, 1996).

What was measured:
[1] = tested on: Brassica rapa subsp. oleifera; test: Growth inhibition of Brassica rapa subsp. oleifera assessed as total chlorophyll level at 3 x 10^-4 M after 7 days; format: functional; design: scale not given: the % may be the effect or the level left
[2] = tested on: Brassica rapa subsp. oleifera; test: Growth inhibition of Brassica rapa subsp. oleifera assessed as chlorophyll a level at 3 x 10^-4 M after 7 days; format: functional; design: scale not given: the % may be the effect or the level left
[3] = tested on: Brassica rapa subsp. oleifera; test: Growth inhibition of Brassica rapa subsp. oleifera assessed as chlorophyll b level at 3 x 10^-5 M after 7 days; format: functional; design: scale not given: the % may be the effect or the level left
[4] = tested on: Brassica rapa subsp. oleifera; test: Growth inhibition of Brassica rapa subsp. oleifera assessed as root growth at 5 x 10^-5 M after 7 days; format: functional
[5] = tested on: Brassica rapa subsp. oleifera; test: Growth inhibition of Brassica rapa subsp. oleifera assessed as chlorophyll a level at 1 x 10^-4 M after 7 days; format: functional; design: scale not given: the % may be the effect or the level left
[6] = Toxicity in ip dosed Mus musculus ddY (mouse) assessed as mortality after 1 to 7 days; format: organism-based; settings: in vivo
[7] = tested on: Brassica rapa subsp. oleifera; test: Growth inhibition of Brassica rapa subsp. oleifera assessed as root growth at 3 x 10^-5 M after 7 days; format: functional
[8] = tested on: Brassica rapa subsp. oleifera; test: Growth inhibition of Brassica rapa subsp. oleifera assessed as total chlorophyll level at 1 x 10^-4 M after 7 days; format: functional; design: scale not given: the % may be the effect or the level left
[9] = tested on: Brassica rapa subsp. oleifera; test: Growth inhibition of Brassica rapa subsp. oleifera assessed as chlorophyll b level at 3 x 10^-4 M after 7 days; format: functional; design: scale not given: the % may be the effect or the level left
[10] = tested on: Brassica rapa subsp. oleifera; test: Growth inhibition of Brassica rapa subsp. oleifera assessed as root growth at 3 x 10^-4 M after 7 days; format: functional
[11] = tested on: Brassica rapa subsp. oleifera; test: Growth inhibition of Brassica rapa subsp. oleifera assessed as chlorophyll a level at 3 x 10^-5 M after 7 days; format: functional; design: scale not given: the % may be the effect or the level left
[12] = tested on: Brassica rapa subsp. oleifera; test: Growth inhibition of Brassica rapa subsp. oleifera assessed as chlorophyll b level at 5 x 10^-5 M after 7 days; format: functional; design: scale not given: the % may be the effect or the level left
[13] = tested on: Brassica rapa subsp. oleifera; test: Growth inhibition of Brassica rapa subsp. oleifera assessed as total chlorophyll level at 5 x 10^-5 M after 7 days; format: functional; design: scale not given: the % may be the effect or the level left
[14] = tested on: Brassica rapa subsp. oleifera; test: Growth inhibition of Brassica rapa subsp. oleifera assessed as chlorophyll b level at 1 x 10^-4 M after 7 days; format: functional; design: scale not given: the % may be the effect or the level left
[15] = tested on: Brassica rapa subsp. oleifera; test: Growth inhibition of Brassica rapa subsp. oleifera assessed as total chlorophyll level at 3 x 10^-5 M after 7 days; format: functional; design: scale not given: the % may be the effect or the level left
[16] = tested on: Brassica rapa subsp. oleifera; test: Growth inhibition of Brassica rapa subsp. oleifera assessed as root growth at 1 x 10^-4 M after 7 days; format: functional
[17] = tested on: Brassica rapa subsp. oleifera; test: Growth inhibition of Brassica rapa subsp. oleifera assessed as chlorophyll a level at 5 x 10^-5 M after 7 days; format: functional; design: scale not given: the % may be the effect or the level left

Row | Structure (SMILES) | Activity [1] [%] | Activity [2] [%] | Activity [3] [%] | Root length [4] [mm] | Activity [5] [%] | LD50 [6] [mg/kg] | Root length [7] [mm] | Activity [8] [%] | Activity [9] [%] | Activity [10] [mm] | Activity [11] [%] | Activity [12] [%] | Activity [13] [%] | Activity [14] [%] | Activity [15] [%] | Activity [16] [mm] | Activity [17] [%]
1 | O=C(NN1C(=O)CSC1=S)c1ccccc1 [N-BENZOYLAMINORHODANINE] | 9.62 | 6.53 | 6.82 | 73.3 | 11.46 | > 1000 | 79.6 | 17.6 | 3.1 | 19.2 | 14.44 | 6.12 | 19.54 | 6.15 | 21.24 | 33.8 | 13.43
2 | CC(=O)NN1C(=O)CSC1=S [N-ACETYLAMINORHODANINE] | 13.58 | 9.35 | 6.65 | 46.5 | 10.84 | > 1000 | 47 | 16.24 | 4.23 | 39.3 | 13.68 | 5.99 | 17.47 | 5.41 | 20.31 | 47.4 | 11.5
